Experimental data taken from patent US11746102B2, “Polymorphs of selinexor” (Karyopharm Therapeutics Inc., priority 2014, dated 2023).

Assays:
Format in all cases: physicochemical
[1] = Stability of Form A on exposure to humidity/temperature
Protocol: A comprehensive polymorphism assessment of selinexor was performed in a range of different solvents, solvent mixtures and under a number of experimental conditions based on the solubility of selinexor. Three anhydrous polymorphs of selinexor were observed by XRPD investigation, designated Form A, Form B and Form C.

[2] = Competitive slurry experiment (Form A, Form C, seed of Form B); conditions: about 1:1 Form A and Form C with Form B seed; matured at 5, 25, 50° C. in ethyl acetate, 30% IPA:70% water, 30% ethanol:70% water; 72 hours and 1 week; in acetonitrile the solvate formed
Protocol: In a competitive slurry experiment, approximately 1:1 mixtures of Form A and Form C were prepared. The mixtures were then stirred with a seed of Form B (about 5% by weight of the mixture of Form A and Form C). The produced systems were matured at 5° C., 25° C. and 50° C. under stirring in acetonitrile, ethyl acetate, 30% IPA:70% water and 30% ethanol:70% water. The systems were analyzed by XRPD at two different time points: 72 hours and 1 week.
Form D was observed by maturation in acetonitrile. This experiment confirmed Form A as the stable form, compared to Form B and Form C, under the conditions investigated. The presence of acetonitrile led to solvate formation at all of the temperatures investigated.

[3] = Polymorphism studies (cooling, slow evaporation, maturation; XRPD); conditions: 8 days maturation RT/50° C., solids analysed by XRPD
Protocol: Samples found as clear solutions at −20° C. were placed for slow evaporation at RT using a 25-gauge syringe needle(s) in the septum of the vial. • The solid suspensions observed in 100 volumes of the relative solvent systems at the end of the solubility assessment were placed for 8 days maturation cycling between RT and 50° C. (cycling 4 hours at RT; 4 hours at 50° C.). After the maturation, the solids were recovered and the supernatants were placed for slow evaporation. All the solids obtained by these processes were analyzed by XRPD.

[4] = Particle size analysis (Malvern MS2000, volume-based); conditions: for d10: 10% of total particle volume no larger than this size, 0.1% lecithin in Isopar G dispersant; for d50: 50% of total particle volume no larger than this size; for d50 / d90 / D[4,3] Volume weighted mean: lecithin in Isopar G dispersant; for d90: 90% of total particle volume no larger than this size; for D[4,3] Volume weighted mean: in µm; for Characteristic of the particle size distribution: overlay of particle size distributions
Description: Particle size data was acquired using a Malvern Instruments MS2000 equipped with a Hydro2000 μP dispersion unit. Data was collected and analyzed using Mastersizer 2000 v 5.60 software, using volume-based measurements. NIST-traceable glass beads were used as the reference standard.
Details of the method conditions used to analyze particle size are listed below: • Sample refractive index: 1.596 • Sample absorption: 0.001 • Dispersant: 0.100 (w/v) Lecithin in Isopar G • Dispersant refractive index: 1.42 • Pump speed: 2100 rpm • Recirculation time: 2 minutes • Sample measurement time: 30 sec. • Background measurement time: 30 sec. • Model: general purpose • Sensitivity: normal • Particle shape: irregular.
One particle size measurement of each lot of selinexor described in Examples 1-6 was collected using the particle size method conditions described above. Table 4 provides sample information and particle size analysis data for the indicated lot of selinexor under the particle size method analysis conditions described above. FIGS. 5A-5P are particle size distribution graphs and show the particle size distribution of the sample corresponding to the indicated lot of selinexor under the particle size method analysis conditions described above.

[5] = Solubility assessment (visual) of selinexor in solvents and solvent mixtures; conditions: for Solubility: starting Form A

O=C(/C=C\n1cnc(-c2cc(C(F)(F)F)cc(C(F)(F)F)c2)n1)NNc1cnccn1 [Form A]
Physico-chemical stability ([1]; exposed for 4 weeks to 25° C./97% relative humidity (RH)): stable | Physico-chemical stability ([1]; exposed for 4 weeks to 40° C./75% RH): stable | Relative stability of forms in competitive slurry [2]: stable anhydrous form | Stability of the form under solvent-based experimentation [3]: stable in most of the conditions investigated

O=C(/C=C\n1cnc(-c2cc(C(F)(F)F)cc(C(F)(F)F)c2)n1)NNc1cnccn1 [Lot No. 1339-BS-142-1]
d10 ([4]; listed as 1339-BS-142-1): 4.978 μm | d50 ([4]; listed as 1339-BS-142-1): 11.969 μm | d90 ([4]; listed as 1339-BS-142-1): 28.331 μm | D[4,3] Volume weighted mean ([4]; listed as 1339-BS-142-1): 16.614 | Characteristic of the particle size distribution ([4]; listed as 1339-BS-142-1): more a unimodal characteristic

O=C(/C=C\n1cnc(-c2cc(C(F)(F)F)cc(C(F)(F)F)c2)n1)NNc1cnccn1 [Lot No. 1339-BS-142-2]
d10 ([4]; listed as 1339-BS-142-2): 6.088 μm | d50 ([4]; listed as 1339-BS-142-2): 14.468 μm | d90 ([4]; listed as 1339-BS-142-2): 33.936 μm | D[4,3] Volume weighted mean ([4]; listed as 1339-BS-142-2): 20.889 | Characteristic of the particle size distribution ([4]; listed as 1339-BS-142-2): more a unimodal characteristic

O=C(/C=C\n1cnc(-c2cc(C(F)(F)F)cc(C(F)(F)F)c2)n1)NNc1cnccn1 [Lot No. 1341-AK-109-2]
d10 ([4]; listed as 1341-AK-109-2): 2.815 μm | d50 ([4]; listed as 1341-AK-109-2): 10.423 μm | d90 ([4]; listed as 1341-AK-109-2): 89.782 μm | D[4,3] Volume weighted mean ([4]; listed as 1341-AK-109-2): 32.779 | Characteristic of the particle size distribution ([4]; listed as 1341-AK-109-2): distinctly bimodal

O=C(/C=C\n1cnc(-c2cc(C(F)(F)F)cc(C(F)(F)F)c2)n1)NNc1cnccn1 [Lot No. 1305365]
d10 ([4]; listed as 1305365): 4.905 μm | d50 ([4]; listed as 1305365): 14.268 μm | d90 ([4]; listed as 1305365): 75.098 μm | D[4,3] Volume weighted mean ([4]; listed as 1305365): 34.740

O=C(/C=C\n1cnc(-c2cc(C(F)(F)F)cc(C(F)(F)F)c2)n1)NNc1cnccn1 [Lot No. 1405463]
d10 ([4]; listed as 1405463): 12.062 μm | d50 ([4]; listed as 1405463): 27.653 μm | d90 ([4]; listed as 1405463): 64.876 μm | D[4,3] Volume weighted mean ([4]; listed as 1405463): 33.740

O=C(/C=C\n1cnc(-c2cc(C(F)(F)F)cc(C(F)(F)F)c2)n1)NNc1cnccn1 [Lot No. PC-14-005]
Minor tertiary mode [4]: approximately 400 μm | d10 ([4]; listed as PC-14-005): 6.363 μm | d50 ([4]; listed as PC-14-005): 18.345 μm | d90 ([4]; listed as PC-14-005): 86.906 μm | D[4,3] Volume weighted mean ([4]; listed as PC-14-005): 36.720

O=C(/C=C\n1cnc(-c2cc(C(F)(F)F)cc(C(F)(F)F)c2)n1)NNc1cnccn1 [Lot No. PC-14-008]
d10 ([4]; listed as PC-14-008): 7.658 μm | d50 ([4]; listed as PC-14-008): 18.290 μm | d90 ([4]; listed as PC-14-008): 42.616 μm | D[4,3] Volume weighted mean ([4]; listed as PC-14-008): 22.451 | Characteristic of the particle size distribution ([4]; listed as PC-14-008): more a unimodal characteristic

O=C(/C=C\n1cnc(-c2cc(C(F)(F)F)cc(C(F)(F)F)c2)n1)NNc1cnccn1 [Lot No. PC-14-009]
d10 ([4]; listed as PC-14-009): 9.665 μm | d50 ([4]; listed as PC-14-009): 24.406 μm | d90 ([4]; listed as PC-14-009): 68.445 μm | D[4,3] Volume weighted mean ([4]; listed as PC-14-009): 32.557 | Characteristic of the particle size distribution ([4]; listed as PC-14-009): more a unimodal characteristic

O=C(/C=C\n1cnc(-c2cc(C(F)(F)F)cc(C(F)(F)F)c2)n1)NNc1cnccn1 [Selinexor, (Z)-3-(3-(3,5-bis(trifluoromethyl)phenyl)-1H-1,2,4-triazol-1-yl)-N′-(pyrazin-2-yl)acrylohydrazide]
Solubility ([5]; 20% MeCN:80% Water, volumes of solvent): Not dissolved in 100 v | Solubility ([5]; 40% MeCN:60% Water, volumes of solvent): Not dissolved in 100 v | Solubility ([5]; 60% MeCN:40% Water, volumes of solvent): Dissolved in 50 v | Solubility ([5]; 80% MeCN:20% Water, volumes of solvent): Dissolved in 30 v | Solubility ([5]; 90% MeCN:10% Water, volumes of solvent): Dissolved in 30 v | Solubility ([5]; Acetonitrile, volumes of solvent (1 volume in μL = sample mg), assessed at 50° C. and RT): Dissolved in 70 v | Solubility (visual) ([5]; IPA:water mixtures having up to 60% water): soluble | Solubility (visual) ([5]; acetonitrile:water mixtures having up to 40% water): soluble | Solubility (visual) ([5]; heptane, 1,2-dichloroethane, toluene, cumene, diisopropylether, water and isooctane, 5 to 100 volumes): not soluble | Share of the solvent systems investigated in which soluble ([5]; thirty solvents and solvent mixtures, 50° C./RT): about 60 % of the solvent systems investigated
